According to the SangsterLogP compilation:

Compound `COCCOc1nc(C)c(-c2ccccc2)cc1C#N` has a logP of 3.74.
In the case of `COCCOc1nc(C)c(-c2ccncc2)cc1C#N`, the logP is reported as 2.4.
Work on `Cc1nc(OCCO)c(C#N)cc1-c1ccncc1` yielded a logP of 1.83.
For `CCOc1ncc(-c2ccncc2)cc1C#N`, the logP was 2.59.
Compound `N#Cc1cc(-c2ccncc2)cnc1OCCCO` has a logP of 1.63.
Work on `N#Cc1cc(-c2ccncc2)cnc1OCC(O)CO` (centres undefined) yielded a logP of 0.76.
Work on `COc1nc(C)c(-c2ccncc2)cc1C#N` yielded a logP of 2.41.
In the case of `N#Cc1cc(-c2ccncc2)cnc1OCCOCCO`, the logP is reported as 1.5.
Compound `COCCOc1ncc(-c2ccncc2)cc1C#N` has a logP of 1.96.
With `Cc1nc(OCCO)c(C#N)cc1-c1ccccc1` the logP was 3.23.
For `CC(O)COc1ncc(-c2ccncc2)cc1C#N` (centres undefined), the logP was 1.65.
In the case of `Cc1nc(OCCOCCO)c(C#N)cc1-c1ccncc1`, the logP is reported as 1.81.
Work on `N#Cc1cc(-c2ccncc2)cnc1Oc1ccccc1` yielded a logP of 3.09.
With `COc1ncc(-c2ccncc2)cc1C#N` the logP was 2.02.
